Reference: patent US9085550B2, “Ligands for estrogen related receptors and methods for synthesis of said ligands” (CITY OF HOPE, priority 2005, dated 2015)
Several values for one entry are separate records, joined by “and”; a condition that tells them apart may be missing. Identical values can stand only once.

Tests used:
Format in all cases: cell-based
[1] = target: T1, GAL-hERRa (human ERRα ligand binding domain fused to GAL4 DNA binding domain) (Homo sapiens, UniProt P11474); experiment: GAL4 reporter transactivation assay in CV-1 cells, GAL-hERRa; conditions: for Fold activation, GAL-hERRa + PGC-1a / Fold activation, GAL-hERRa / Fold activation, Receptor ERRα: CV-1; for Fold activation, GAL-hERRa + PGC-1a: reporter 0.42:vector 0.00875:PGC-1a 0.035; for Fold activation, GAL-hERRa: reporter 0.42:vector 0.00875, no PGC-1a; for Fold activation, Receptor ERRα: Table 1, reporter 0.42:receptor vector 0.035:PGC-1a 0.035
T1 construct: expressed in transfected cells; host or cells: CV-1
T1 sequence (P11474 193-421 limits assumed): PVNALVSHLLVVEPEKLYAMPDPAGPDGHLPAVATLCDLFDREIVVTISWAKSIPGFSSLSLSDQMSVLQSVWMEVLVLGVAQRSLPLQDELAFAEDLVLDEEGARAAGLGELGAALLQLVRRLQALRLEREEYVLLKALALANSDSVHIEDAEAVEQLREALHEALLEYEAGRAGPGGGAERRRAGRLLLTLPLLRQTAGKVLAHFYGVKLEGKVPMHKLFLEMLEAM

[2] = target: T2, GAL-L-hERRb (human ERRβ ligand binding domain fused to GAL4 DNA binding domain) (Homo sapiens, UniProt O95718); experiment: GAL4 reporter transactivation assay in CV-1 cells, GAL-L-hERRb; conditions: for Fold activation, GAL-L-hERRb + PGC-1a / Fold activation, GAL-L-hERRb / Fold activation, Receptor ERRβ: CV-1; for Fold activation, GAL-L-hERRb + PGC-1a: reporter 0.42:vector 0.00875:PGC-1a 0.035; for Fold activation, GAL-L-hERRb: reporter 0.42:vector 0.00875, no PGC-1a; for Fold activation, Receptor ERRβ: Table 1, reporter 0.42:receptor vector 0.035:PGC-1a 0.035
T2 construct: expressed in transfected cells; host or cells: CV-1
T2 sequence (O95718 208-432 limits assumed): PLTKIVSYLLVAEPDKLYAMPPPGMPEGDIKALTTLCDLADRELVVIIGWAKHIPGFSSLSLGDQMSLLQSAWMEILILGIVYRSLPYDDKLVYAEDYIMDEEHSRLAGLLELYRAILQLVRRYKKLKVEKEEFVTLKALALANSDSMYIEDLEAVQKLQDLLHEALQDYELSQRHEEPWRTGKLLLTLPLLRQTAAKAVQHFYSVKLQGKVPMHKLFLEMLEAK

[3] = target: T3, GAL-mERRg (mouse ERRγ ligand binding domain fused to GAL4 DNA binding domain) (Mus musculus, UniProt P62509); experiment: GAL4 reporter transactivation assay in CV-1 cells, GAL-mERRg; conditions: for Fold activation, GAL-mERRg + PGC-1a / Fold activation, GAL-mERRg / Fold activation, Receptor ERRγ: CV-1; for Fold activation, GAL-mERRg + PGC-1a: reporter 0.42:vector 0.00875:PGC-1a 0.035; for Fold activation, GAL-mERRg: reporter 0.42:vector 0.00875, no PGC-1a; for Fold activation, Receptor ERRγ: Table 1, reporter 0.42:receptor vector 0.035:PGC-1a 0.035
T3 construct: expressed in transfected cells; host or cells: CV-1
T3 sequence (P62509 233-457 limits assumed): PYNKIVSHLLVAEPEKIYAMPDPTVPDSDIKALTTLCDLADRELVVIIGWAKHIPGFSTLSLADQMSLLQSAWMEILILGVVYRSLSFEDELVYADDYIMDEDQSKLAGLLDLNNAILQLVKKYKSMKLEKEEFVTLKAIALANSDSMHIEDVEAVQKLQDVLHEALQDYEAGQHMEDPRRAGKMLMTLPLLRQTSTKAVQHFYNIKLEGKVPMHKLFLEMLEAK

[4] = target: T4, human ERα (Homo sapiens, UniProt P03372); experiment: ERE-TK-luc reporter transactivation assay in CV-1 cells, full-length hERa
T4 construct: Human ERα and ERβ were examined as full-length proteins using an estrogen receptor responsive reporter construct; expressed in transfected cells; host or cells: CV-1
T4 sequence (P03372 1-595): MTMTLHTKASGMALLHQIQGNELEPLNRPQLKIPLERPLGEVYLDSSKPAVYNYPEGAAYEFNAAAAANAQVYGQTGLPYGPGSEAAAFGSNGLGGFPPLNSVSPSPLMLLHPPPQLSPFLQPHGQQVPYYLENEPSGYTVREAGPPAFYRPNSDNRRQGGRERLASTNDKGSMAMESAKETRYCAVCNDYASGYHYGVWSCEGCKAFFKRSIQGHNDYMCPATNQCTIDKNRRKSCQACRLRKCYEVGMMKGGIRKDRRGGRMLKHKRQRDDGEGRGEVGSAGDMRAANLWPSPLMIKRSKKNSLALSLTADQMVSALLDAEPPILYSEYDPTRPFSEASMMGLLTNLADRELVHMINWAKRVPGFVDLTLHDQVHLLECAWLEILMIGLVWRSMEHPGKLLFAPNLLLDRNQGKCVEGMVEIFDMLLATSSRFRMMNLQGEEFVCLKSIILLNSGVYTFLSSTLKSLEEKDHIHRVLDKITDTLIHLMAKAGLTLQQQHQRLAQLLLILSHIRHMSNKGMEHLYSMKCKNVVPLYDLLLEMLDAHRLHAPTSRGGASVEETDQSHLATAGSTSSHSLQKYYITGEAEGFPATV
Procedure: Human ERα and ERβ were examined as full-length proteins using an estrogen receptor responsive reporter construct.
Suitable reporter gene constructs are well known to skilled workers in the fields of biochemistry and molecular biology. […] Other vectors known in the art can be used in the methods of the present invention.
CV-1 cells for the activation assays were grown in Dulbecco's modified Eagle's medium supplemented with 10% resin charcoal-stripped fetal bovine serum, 50 U/ml penicillin G and 50 μg/ml streptomycin sulfate (DMEM-FBS) at 37° C. in 5% CO2. One day prior to transfection, cells were plated to 50-80% confluence using phenol red free DMEM-FBS.

**Q.** With `CCN(CC)c1ccc(C=NNC(=O)c2ccc(O)cc2)cc1` [DY131, 4-Hydroxy-benzoic acid (4-diethylamino-benzylidene)-hydrazide] as the compound, how does the “Fold activation, GAL-hERRa + PGC-1a” value ([1]; 0.3 μM) read?
**A.** The value was 1.69 fold.

**Q.** And the “Fold activation, GAL-hERRa + PGC-1a” value ([1]; 1 μM)?
**A.** The value was 2.07 fold.

**Q.** And the “Fold activation, GAL-hERRa + PGC-1a” value ([1]; 3 μM (first 3 μM column))?
**A.** The value was 2.43 fold.

**Q.** What about the “Fold activation, GAL-hERRa + PGC-1a” value ([1]; 3 μM (second 3 μM column)) of the same compound?
**A.** The value was 2.47 fold.

**Q.** What about the “Fold activation, GAL-hERRa + PGC-1a” value ([1]; 10 μM) of the same compound?
**A.** The value was 3.75 fold.

**Q.** What about the “Fold activation, GAL-hERRa + PGC-1a” value ([1]; 30 μM) of the same compound?
**A.** Its value is 3.31 fold.

**Q.** What about the “Fold activation, GAL-hERRa” value ([1]; 0.3 μM) of the same compound?
**A.** The value was 1.10 fold.

**Q.** And the “Fold activation, GAL-hERRa” value ([1]; 1 μM)?
**A.** Its value is 0.96 fold.

**Q.** What about the “Fold activation, GAL-hERRa” value ([1]; 3 μM (first 3 μM column)) of the same compound?
**A.** The value was 1.55 fold.

**Q.** And the “Fold activation, GAL-hERRa” value ([1]; 3 μM (second 3 μM column))?
**A.** Its value is 1.57 fold.

**Q.** And the “Fold activation, GAL-hERRa” value ([1]; 10 μM)?
**A.** Its value is 1.44 fold.

**Q.** And the “Fold activation, GAL-hERRa” value ([1]; 30 μM)?
**A.** Its value is 1.87 fold.

**Q.** And the “Fold activation, Receptor ERRα” value ([1]; 3 μM)?
**A.** Its value is 1.5 fold.

**Q.** And the “Fold activation, Receptor ERRα” value ([1]; 10 μM)?
**A.** Its value is 1.7 fold.

**Q.** And the “Fold activation, Receptor ERRα” value ([1]; 30 μM)?
**A.** The value was 1.6 fold.

**Q.** And the “Activation of the reporter construct for ERRα” value ([1]; Table 1 conditions (reporter:Gal-ERR:PGC-1a=0.4:0.035:0.035), any of the concentrations tested)?
**A.** The value was “failed to activate”.

**Q.** What about the “Activation of the reporter construct for ERRα” value ([1]; different assay conditions (reporter plasmid:Gal-ERR:PGC-1a=0.4:0.00875:0.035), Table 2) of the same compound?
**A.** The value was “activated”.

**Q.** And the “Activation of ERRα” value ([1]; in the presence of PGC-1a)?
**A.** The value was “can activate”.

**Q.** What about the “Fold activation, GAL-L-hERRb + PGC-1a” value ([2]; 0.3 μM) of the same compound?
**A.** Its value is 1.27 fold.

**Q.** What about the “Fold activation, GAL-L-hERRb + PGC-1a” value ([2]; 1 μM) of the same compound?
**A.** The value was 1.19 fold.

**Q.** What about the “Fold activation, GAL-L-hERRb + PGC-1a” value ([2]; 3 μM (first 3 μM column)) of the same compound?
**A.** Its value is 1.80 fold.

**Q.** What about the “Fold activation, GAL-L-hERRb + PGC-1a” value ([2]; 3 μM (second 3 μM column)) of the same compound?
**A.** Its value is 2.02 fold.

**Q.** What about the “Fold activation, GAL-L-hERRb + PGC-1a” value ([2]; 10 μM) of the same compound?
**A.** Its value is 2.45 fold.

**Q.** And the “Fold activation, GAL-L-hERRb + PGC-1a” value ([2]; 30 μM)?
**A.** The value was 2.52 fold.

**Q.** What about the “Fold activation, GAL-L-hERRb” value ([2]; 0.3 μM) of the same compound?
**A.** The value was 0.84 fold.

**Q.** What about the “Fold activation, GAL-L-hERRb” value ([2]; 1 μM) of the same compound?
**A.** Its value is 1.05 fold.

**Q.** And the “Fold activation, GAL-L-hERRb” value ([2]; 3 μM (first 3 μM column))?
**A.** Its value is 1.26 fold.

**Q.** And the “Fold activation, GAL-L-hERRb” value ([2]; 3 μM (second 3 μM column))?
**A.** Its value is 1.15 fold.

**Q.** And the “Fold activation, GAL-L-hERRb” value ([2]; 10 μM)?
**A.** The value was 2.14 fold.

**Q.** What about the “Fold activation, GAL-L-hERRb” value ([2]; 30 μM) of the same compound?
**A.** Its value is 2.46 fold.

**Q.** And the “Fold activation, Receptor ERRβ” value ([2]; 3 μM)?
**A.** Its value is 1.9 fold.

**Q.** What about the “Fold activation, Receptor ERRβ” value ([2]; 10 μM) of the same compound?
**A.** Its value is 3.1 fold.

**Q.** And the “Fold activation, Receptor ERRβ” value ([2]; 30 μM)?
**A.** The value was 3.8 fold.

**Q.** And the “Fold activation of ERRβ” value ([2]; Table 1 conditions, concentrations of 10-30 μM)?
**A.** The value was 3-4 fold.

**Q.** And the “Activation of ERRβ” value ([2]; in the presence of PGC-1a)?
**A.** Its value is “can activate”.

**Q.** And the “Fold activation, GAL-mERRg + PGC-1a” value ([3]; 0.3 μM)?
**A.** The value was 1.38 fold.

**Q.** And the “Fold activation, GAL-mERRg + PGC-1a” value ([3]; 1 μM)?
**A.** Its value is 1.59 fold.

**Q.** What about the “Fold activation, GAL-mERRg + PGC-1a” value ([3]; 3 μM (first 3 μM column)) of the same compound?
**A.** Its value is 2.65 fold.

**Q.** What about the “Fold activation, GAL-mERRg + PGC-1a” value ([3]; 3 μM (second 3 μM column)) of the same compound?
**A.** Its value is 2.29 fold.

**Q.** What about the “Fold activation, GAL-mERRg + PGC-1a” value ([3]; 10 μM) of the same compound?
**A.** Its value is 2.82 fold.

**Q.** And the “Fold activation, GAL-mERRg + PGC-1a” value ([3]; 30 μM)?
**A.** The value was 3.09 fold.

**Q.** And the “Fold activation, GAL-mERRg” value ([3]; 0.3 μM)?
**A.** Its value is 0.87 fold.

**Q.** And the “Fold activation, GAL-mERRg” value ([3]; 1 μM)?
**A.** The value was 0.92 fold.

**Q.** What about the “Fold activation, GAL-mERRg” value ([3]; 3 μM (first 3 μM column)) of the same compound?
**A.** Its value is 1.26 fold.

**Q.** What about the “Fold activation, GAL-mERRg” value ([3]; 3 μM (second 3 μM column)) of the same compound?
**A.** The value was 1.70 fold.

**Q.** What about the “Fold activation, GAL-mERRg” value ([3]; 10 μM) of the same compound?
**A.** Its value is 1.49 fold.

**Q.** What about the “Fold activation, GAL-mERRg” value ([3]; 30 μM) of the same compound?
**A.** Its value is 1.91 fold.

**Q.** And the “Fold activation, Receptor ERRγ” value ([3]; 3 μM)?
**A.** The value was 5 fold and 5.0 fold.

**Q.** And the “Fold activation, Receptor ERRγ” value ([3]; 10 μM)?
**A.** The value was 5.9 fold.

**Q.** And the “Fold activation, Receptor ERRγ” value ([3]; 30 μM)?
**A.** The value was 6.6 fold.

**Q.** And the “Activation of ERRγ” value ([3]; in the presence of PGC-1a)?
**A.** The value was “can activate”.

**Q.** And the “Activity on ERα (activate or inhibit)” value ([4]; CV-1 reporter assay)?
**A.** Its value is “failed to activate or inhibit”.

**Q.** What about the “Fold Activation, ERE-TK-luc, hERa” value ([4]; Table 7, CV-1, drug conc 30 μM) of the same compound?
**A.** The value was 0.53 fold.

**Q.** And the “Activation of ERa” value ([4]; specificity for ERRs)?
**A.** The value was “do not activate”.
